The subject of test [1] is carageenan-induced edema. Put plainly: Carrageenan-induced rat paw edema test (anti-inflammatory activity). It counts as in vivo, Sprague-Dawley rats. The note with it: carrageenan-induced rat paw edema, defined in Example 397; for inhibition in vivo at 50 mg/kg: po, 3 h, read-out: % Protection. Set-up: % Protection: concentration or dose not given beside the values. The method in brief: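 Sprague-Dawley rats (male and female, 150-250 g), fasted 18 h, given compound orally at 50 mg/kg in 0.1% sodium CMC (alternatively i.v., s.c. or i.p.). 1% carrageenan injected sub-plantar in right hind paw 1 h later. Paw displacement read again 3 h later; % protection = [(Control−Test)/Control]×100 versus saline control.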
(In general: Carrageenan injected into the paw causes an acute inflammation.)

The subject of test [2] is NF-κB. The experiment in a line: NF-κB inhibitor screen: basal NF-κB-dependent luciferase expression in HEK/NF-κB cell line. It counts as cell-based. The note with it: 1 uM, determined as described in Example 398; for inhibition at 1 µM: read-out: NFkB inhibition @ 1 uM. The source says:
Development of NF-κB and AP-1 Screens: Two HEK293 cell lines were purchased from Panomics. One cell line was stably transfected with a plasmid in which luciferase expression is regulated by six copies of the NF-κB transcriptional element (5′-[…]-3′); and the other cell line was stably transfected with a plasmid in which luciferase expression is regulated by three copies of the AP-1 transcriptional element (TGACTAA). To test the biological activity of the promoters, the HEK/NF-κB cell line was stimulated with TNF-α (20 ng/ml) for 24 hours, and the HEK/AP-1 cell line was stimulated with PMA (10 ng/ml) for 24 hours. […] In addition, a pyrimidine carboxyimide that had previously been shown (ref. 58) to be an inhibitor of transcription mediated by NF-κB and AP-1 reduced luciferase activity by approximately 40% in each of the NF-κB and AP-1 cell lines.
The above two assays analyzed the effects of the compounds on post-transcriptional gene regulation, which is known to play a key role in cancer and inflammation. By contrast, the NF-κB assay and the following assay (AP-1) test whether the compounds act at the transcriptional level. Thirty-nine representative compounds were screened in an HEK/NF-κB cell line. HEK cells were stably transfected with a plasmid expressing luciferase under the control of the NF-κB promoter. These transfected cells were plated on a 96-well plate. As above, initial screening was carried out at 1.0 μM by adding compound in DMSO (0.3%) twenty-four hours after plating. Each compound was added to each of triplicate wells. DMSO (0.3%) was added to one set of wells as a control. Luciferase activity was determined using Promega's Brite-Glo kit, and the mean for each sample was normalized to that for DMSO.
The fourteen representative compounds identified in the eIF4E screen as interesting (Numbered 2, 3, 4, 6, 8, 11, 15, 20, 21, 24, 25, 32, 33, and 35) were then tested for luciferase activity in a six-point dose response (10 nM, 33 nM, 100 nM, 330 nM, 1000 nM, and 3300 nM). Screening was carried out as described above by monitoring the effects of the compounds on basal NF-κB-dependent luciferase expression. Each dose was used out in triplicate, and repeated between two and four times. Results were normalized by the average expression level at the lowest concentration level, as described above.

The subject of test [3] is AP-1. Put plainly: AP-1 inhibitor screen: basal AP-1-dependent luciferase expression in HEK/AP-1 cell line. Type of test: cell-based. The note with it: 1 uM, determined as described in Example 398; for inhibition at 1 µM: AP1. From the text:
Development of NF-κB and AP-1 Screens: Two HEK293 cell lines were purchased from Panomics. One cell line was stably transfected with a plasmid in which luciferase expression is regulated by six copies of the NF-κB transcriptional element (5′-[…]-3′); and the other cell line was stably transfected with a plasmid in which luciferase expression is regulated by three copies of the AP-1 transcriptional element (TGACTAA). To test the biological activity of the promoters, the HEK/NF-κB cell line was stimulated with TNF-α (20 ng/ml) for 24 hours, and the HEK/AP-1 cell line was stimulated with PMA (10 ng/ml) for 24 hours.
HEK cells were stably transfected with a plasmid expressing luciferase under the control of the AP-1 promoter. The transfected cells were plated on a 96-well plate for 24 hr. Then 1.0 μM of each compound in DMSO (0.3%) was added to triplicate wells and incubated for 48 hr. DMSO (0.3%) was added to one set of triplicate wells as a control. Luciferase activity was determined using Promega's Brite-Glo kit, and the mean for each sample was normalized to that for DMSO.
Screening was carried out as described above, monitoring the compounds' effects on basal AP-1-dependent luciferase expression. Each dose-response experiment was carried out in triplicate and repeated between two and four times.

What is called inhibition is the relative decrease from the control value, in per cent.

Read-outs that look alike come from different tables or passages of the source.

As to `O=c1c2ccccc2nc(-c2sc(Nc3ccccc3)nc2-c2ccccc2)n1-c1ccc(Cl)cc1` [Example 252, 3-(4-Chloro-phenyl)-2-(4-phenyl-2-phenylamino-thiazol-5-yl)-3H-quinazolin-4-one], the inhibition in vivo at 50 mg/kg in test [1] (Rattus norvegicus) came out at 81%. The inhibition at 1 µM came out at 80% in test [2] and 21% in test [3].
For “2-[2-(1-Furan-2-yl-vinylamino)-4-phenyl-thiazol-5-yl]-3-(4-acetyl-phenyl)-3H-quinazolin-4-one [Example 270]”, the “% Protection” value in test [1] worked out at 20%. Moreover, the “NFkB inhibition @ 1 uM” value in test [2] was found to be 11. Further, the “AP-1 inhibition @ 1 uM” value in test [3] amounted to 18.
With `COc1ccc(-n2c(-c3sc(Nc4ccccc4)nc3-c3ccccc3)nc3ccccc3c2=O)cc1` [Example 221, 3-(4-Methoxyphenyl)-2-(4-phenyl-2-phenylamino-thiazol-5-yl)-3H-quinazolin-4-one], the inhibition in vivo at 50 mg/kg in test [1] (Rattus norvegicus) is 85%. In addition, the inhibition at 1 µM worked out at 79% in test [2] and 18% in test [3].
As for `Cc1cccc(-n2c(-c3sc(Nc4ccc(Cl)cc4)nc3-c3ccccc3)nc3ccccc3c2=O)c1` [Example 189, 2-[2-(4-Chloro-phenylamino)-4-phenyl-thiazol-5-yl]-3-m-tolyl-3H-quinazolin-4-one], the inhibition in vivo at 50 mg/kg in test [1] (Rattus norvegicus) was determined as 38%. Also, the inhibition at 1 µM is -4% in test [2] and 83% in test [3].
As for `COc1ccc(-n2c(-c3sc(NC(=O)c4ccccc4)nc3-c3ccccc3)nc3ccccc3c2=O)cc1` [Example 222, N-[5-(4-Oxo-3-(4-methoxyphenyl)-3,4-dihydro-quinazolin-2-yl)-4-phenyl-thiazole-2-yl]benzamide], the inhibition in vivo at 50 mg/kg in test [1] (Rattus norvegicus) was 24%. In addition, the inhibition at 1 µM came to 15% in test [2] and 0% in test [3].
For `O=c1c2ccccc2nc(-c2sc(Nc3ccccc3)nc2-c2ccccc2)n1-c1ccccc1` [Example 161, 3-Phenyl-2-(4-phenyl-2-phenylamino-thiazol-5-yl)-3H-quinazolin-4-one], in that order: 60%, 80% and 7%.
On to `Cc1ccc(C(=O)Nc2nc(-c3ccccc3)c(-c3nc4ccccc4c(=O)n3-c3ccccc3)s2)cc1` [Example 163, 4-Methyl-N-[5-(4-oxo-3-phenyl-3,4-dihydroquinazolin-2-yl)-4-phenyl-thiazol-2-yl]-benzamide], for which the inhibition in vivo at 50 mg/kg in test [1] (Rattus norvegicus) was found to be 77%. Moreover, the inhibition at 1 µM in test [2] came out at 88%; in test [3], 68%.
As for `CCOC(=O)Nc1nc(-c2ccccc2)c(-c2nc3ccccc3c(=O)n2-c2ccc(OC)cc2)s1` [Example 218, [5-(4-Oxo-3-(4-methoxyphenyl)-3,4-dihydro-quinazolin-2-yl)-4-phenyl-thiazol-2-yl]-carbamic acid ethyl ester], the inhibition in vivo at 50 mg/kg in test [1] (Rattus norvegicus) worked out at 20%. For the same compound, the values for the inhibition at 1 µM in test [2] and in test [3] were 22% and 24%, respectively.
As to “2-[2-(1-Furan-2-yl-vinylamino)-4-phenyl-thiazol-5-yl]-3-phenyl-3H-quinazolin-4-one [Example 164]”, the “% Protection” value in test [1] worked out at 66%. Also, the “NFkB inhibition @ 1 uM” value in test [2] is 2. The “AP-1 inhibition @ 1 uM” value in test [3] is on record as 53.
On to `CNc1nc(C)c(-c2nc3ccccc3c(=O)n2-c2ccc(C(C)=O)cc2)s1` [Example 261, 2-(4-Methyl-2-methylamino-thiazol-5-yl)-3-(4-acetyl-phenyl)-3H-quinazolin-4-one], for which the inhibition in vivo at 50 mg/kg in test [1] (Rattus norvegicus) was found to be 42%. Besides, the inhibition at 1 µM in test [2] was 71%; in test [3], -33%.
For `O=C(Nc1nc(-c2ccccc2)c(-c2nc3ccccc3c(=O)n2-c2ccc(Cl)cc2)s1)c1ccccc1` [Example 253, N-[5-(4-Oxo-3-(4-Chloro-phenyl)-3,4-dihydro-quinazolin-2-yl)-4-phenyl-thiazole-2-yl]benzamide] the same measures were 83%, 87% and 28%.
Turning to `O=C(Nc1nc(-c2ccccc2)c(-c2nc3ccccc3c(=O)n2-c2ccccc2)s1)c1ccccc1` [Example 162], the “% Protection” value in test [1] is reported as 87%. Besides, the “NFkB inhibition @ 1 uM” value in test [2] was 58. Also, the “AP-1 inhibition @ 1 uM” value in test [3] amounted to 17.
On to `CCOC(=O)Nc1nc(C)c(-c2nc3ccccc3c(=O)n2-c2ccccc2)s1` [Example 154, (4-Methyl-5-(4-oxo-3-phenyl-3,4-dihydro-quinazolin-2-yl)-thiazol-2-yl)-carbamic acid ethyl ester], for which, in test [1] (Rattus norvegicus), the inhibition in vivo at 50 mg/kg is 12%. In addition, the results for the inhibition at 1 µM in test [2] and in test [3] were 19% and -13%, respectively.
`Cc1nc(Nc2ccccc2)sc1-c1nc2ccccc2c(=O)n1-c1ccc(Cl)cc1` [Example 245, 2-(4-Methyl-2-phenylamino-thiazol-5-yl)-3-(4-chloro-phenyl)-3H-quinazolin-4-one]: the inhibition in vivo at 50 mg/kg in test [1] (Rattus norvegicus) worked out at 72%. The inhibition at 1 µM in test [2] stood at 79%; in test [3], 82%.
Turning to “{5-[3-(4-Methoxy-phenyl)-4-oxo-3,4-dihydro-quinazolin-yl]-thiazol-2-yl}-carbamic acid ethyl ester [Example 215]”, the “% Protection” value in test [1] amounted to 25%. Also, the “NFkB inhibition @ 1 uM” value in test [2] was determined as 34. The “AP-1 inhibition @ 1 uM” value in test [3] is recorded as −6.
As for `CNc1nc(-c2ccccc2)c(-c2nc3ccccc3c(=O)n2-c2ccc(Cl)cc2)s1` [Example 251, 2-(2-Methylamino-4-phenyl-thiazol-5-yl)-3-(4-Chloro-phenyl)-3H-quinazolin-4-one], the inhibition in vivo at 50 mg/kg in test [1] turned out to be 92%. The inhibition at 1 µM in test [2] is 85%; in test [3], 69%.
`Cc1ccc(-n2c(-c3sc(Nc4ccc(Cl)cc4)nc3C)nc3ccccc3c2=O)cc1` [Example 192, 2-[2-(4-Chlorophenylamino)-4-methyl-thiazol-5-yl]-3-p-tolyl-3H-quinazolin-4-one]: the inhibition in vivo at 50 mg/kg in test [1] (Rattus norvegicus) worked out at 37%. Besides, the inhibition at 1 µM turned out to be 12% in test [2] and 2% in test [3].
For `COC(=O)Nc1nc(C)c(-c2nc3ccccc3c(=O)n2-c2ccccc2)s1` [Example 155, (4-Methyl-5-(4-oxo-3-phenyl-3,4-dihydro-quinazolin-2-yl)-thiazol-2-yl)-carbamic acid methyl ester], in that order: 0%, 24% and -1%.
For `Cc1nc(Nc2ccc(Cl)cc2)sc1-c1nc2ccccc2c(=O)n1-c1ccccc1Cl` [Example 230, 2-[2-(4-Chlorophenylamino)-4-methyl-thiazol-5-yl]-3-(2-chloro-phenyl)-3H-quinazolin-4-one], in that order: 58%, 60% and 21%.
For `CCOC(=O)Nc1nc(-c2ccccc2)c(-c2nc3ccccc3c(=O)n2-c2ccc(Cl)cc2)s1` [Example 249, [5-(4-Oxo-3-(4-Chloro-phenyl)-3,4-dihydro-quinazolin-2-yl)-4-phenyl-thiazol-2-yl]-carbamic acid ethyl ester], in that order: 81%, 16% and 0%.

(Values after patent US8829014B2, “Thiazole and thiophene analogues, and their use in treating autoimmune diseases and cancers” (Board of Supervisors of Louisiana State University and …, priority 2006, dated 2014).)
